Laboratory results from patent publication US20090203716A1, “Pyrimidine low molecular weight ligands for modulating hormone receptors” (The Government of the United States of America as …, priority 2006, published 2009).
Entries after “also recorded” stand apart in the source; their conditions may differ.

Assays:
human TSH receptor = biological target: T1, human TSH receptor (Homo sapiens, UniProt P16473); experiment: intracellular cAMP accumulation, agonism at TSHR stably expressed in HEK EM 293 cells; format: cell-based; conditions: for % Max. Resp. @ TSHR in μM: % of maximum response of TSHR to TSH (100 mU/ml), * estimated maximum response at 100 μM compound; for EC50: cAMP, HEK EM 293 cells, dose response 0-100 μM compound, ** estimated EC50, no plateau
T1 construct: expressed in transfected cells
T1 sequence (P16473 21-764): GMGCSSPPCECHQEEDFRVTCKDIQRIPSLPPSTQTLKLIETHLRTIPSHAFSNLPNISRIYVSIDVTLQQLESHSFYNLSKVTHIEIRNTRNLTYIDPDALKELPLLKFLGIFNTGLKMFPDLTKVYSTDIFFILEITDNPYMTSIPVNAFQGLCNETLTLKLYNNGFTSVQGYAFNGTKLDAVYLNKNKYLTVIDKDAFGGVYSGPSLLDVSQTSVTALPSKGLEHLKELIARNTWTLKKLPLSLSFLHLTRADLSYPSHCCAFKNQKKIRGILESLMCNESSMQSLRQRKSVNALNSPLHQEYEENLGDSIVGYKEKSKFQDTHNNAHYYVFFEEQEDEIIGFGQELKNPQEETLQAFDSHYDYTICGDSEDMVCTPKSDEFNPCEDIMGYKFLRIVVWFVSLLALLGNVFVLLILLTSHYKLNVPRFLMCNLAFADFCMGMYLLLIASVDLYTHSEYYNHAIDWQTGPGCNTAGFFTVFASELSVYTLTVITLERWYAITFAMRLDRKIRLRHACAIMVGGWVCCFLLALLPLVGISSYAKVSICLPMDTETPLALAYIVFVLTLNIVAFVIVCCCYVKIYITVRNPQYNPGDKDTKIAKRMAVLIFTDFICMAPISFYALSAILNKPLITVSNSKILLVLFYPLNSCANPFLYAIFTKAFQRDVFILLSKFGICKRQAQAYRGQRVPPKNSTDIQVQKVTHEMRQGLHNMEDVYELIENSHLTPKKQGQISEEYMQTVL
Description: With reference to Table 1, exemplary disclosed compounds were evaluated against human TSH receptor and human LHCG receptor that were stably expressed in HEK 293 EM cells as previously described by Libert et al. (Biochem. Biophys. Res. Commun. 1989, 165, 1250-1255); and by Schulz et al. (Mol. Endocrinol. 1999, 13, 181-190). Cell surface expression of TSH receptor and LHCG receptor were determined via FACS analysis (Kleinau, G.; Jäschke, H.; Neumann, S.; Lättig, S.; Paschke, R.; Krause, G. J. Biol. Chem. 2004, 279, 51590-51600). Agonism of compounds 3-20 were determined via measurement of intracellular cyclic AMP accumulation. […] For example, […] certain compounds disclosed herein exerted no discernible effect on the FSH receptor.
Cells were cultured for 48 h in 24-well plates before incubation for 1 h in serum-free DMEM containing 1 mM 3-isobutyl-1-methylxanthine (IBMX) (SIGMA) and bovine TSH (1.8 μM) (SIGMA) or human LH (1000 ng/ml) (Dr. A. Parlow, NIDDK National Hormone and Pituitary Program) or compounds 3-19 (0-100 μM) in a humidified 5% CO2 incubator. Following aspiration of the medium after incubation with compounds, cells were lysed using lysis buffer 1 of the cAMP Biotrak Enzymeimmunoassay (EIA) System (Amersham Biosciences). The cAMP content of the cell lysate was determined using the manufacturer's protocol. The efficacy of receptor activation by small molecule modulators is expressed as % of maximum response of LHCG receptor or TSH receptor to LH or TSH, respectively. The potency (EC50) was obtained from dose response curves (0-100 μM compound) by data analysis with GraphPad Prism 4 for Windows. With reference to FIG. 1, intracellular cAMP production was determined in response to 100 μM of each compound and is expressed as % of maximum response of TSHR/LHCGR to TSH (100 mU/ml)/LH (1000 ng/ml). The data are presented as mean±SEM of two independent experiments, each performed in duplicate.
(§1) Transiently transfected cells were cultured for 48 hours before the cAMP assay. HEK-EM 293 cells stably expressing TSHR, LHCGR or FSHR were seeded into 24-well plates with a density of 2.2×10^5 cells/well 24 hours before the cAMP assay. After removal of growth medium, cells were incubated for 1 hour in HBSS (Cellgro) with 10 mM HEPES (Cellgro) containing 1 mM 3-isobutyl-1-methylxanthine (IBMX) (Sigma) and the ligand of interest in a humidified 5% CO2 incubator at 37° C. The intracellular cAMP content was determined with the cAMP Biotrak Enzymeimmunoassay (EIA) System (GE Healthcare). Data were analyzed using GraphPad Prism 4 for Windows. Receptor expression was measured as described in Jaschke et al., J Biol Chem 281:9841-9844.

human LHCG receptor = biological target: T2, human LHCG receptor (Homo sapiens, UniProt P22888); experiment: intracellular cAMP accumulation, agonism at LHCGR stably expressed in HEK EM 293 cells; format: cell-based; conditions: for % Max. Resp. @ LHCGR in μM: % of maximum response of LHCGR to LH (1000 ng/ml); for EC50: read-out: EC50 (LHCGR) in μM [95% C.I.], cAMP, HEK EM 293 cells, dose response 0-100 μM compound
T2 construct: expressed in transfected cells
T2 sequence (P22888 27-699): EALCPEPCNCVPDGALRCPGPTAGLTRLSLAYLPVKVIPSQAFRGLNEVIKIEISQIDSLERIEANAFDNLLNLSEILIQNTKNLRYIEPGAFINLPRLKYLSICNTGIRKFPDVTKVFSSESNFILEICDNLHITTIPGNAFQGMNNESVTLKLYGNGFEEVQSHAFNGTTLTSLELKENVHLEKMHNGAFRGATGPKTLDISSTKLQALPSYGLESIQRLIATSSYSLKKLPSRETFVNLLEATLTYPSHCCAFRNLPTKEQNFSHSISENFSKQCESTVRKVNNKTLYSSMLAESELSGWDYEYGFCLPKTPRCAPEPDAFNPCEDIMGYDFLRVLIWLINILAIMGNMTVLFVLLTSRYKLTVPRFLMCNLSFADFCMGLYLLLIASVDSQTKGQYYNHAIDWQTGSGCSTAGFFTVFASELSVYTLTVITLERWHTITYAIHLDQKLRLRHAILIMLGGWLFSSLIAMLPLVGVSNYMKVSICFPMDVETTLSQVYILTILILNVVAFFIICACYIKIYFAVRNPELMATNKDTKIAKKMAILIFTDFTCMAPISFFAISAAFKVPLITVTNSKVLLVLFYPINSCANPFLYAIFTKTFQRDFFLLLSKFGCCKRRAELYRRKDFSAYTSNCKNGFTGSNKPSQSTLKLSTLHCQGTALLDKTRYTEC
Description: With reference to Table 1, exemplary disclosed compounds were evaluated against human TSH receptor and human LHCG receptor that were stably expressed in HEK 293 EM cells as previously described by Libert et al. (Biochem. Biophys. Res. Commun. 1989, 165, 1250-1255); and by Schulz et al. (Mol. Endocrinol. 1999, 13, 181-190). Cell surface expression of TSH receptor and LHCG receptor were determined via FACS analysis (Kleinau, G.; Jäschke, H.; Neumann, S.; Lättig, S.; Paschke, R.; Krause, G. J. Biol. Chem. 2004, 279, 51590-51600).
Following aspiration of the medium after incubation with compounds, cells were lysed using lysis buffer 1 of the cAMP Biotrak Enzymeimmunoassay (EIA) System (Amersham Biosciences). The cAMP content of the cell lysate was determined using the manufacturer's protocol. […] The potency (EC50) was obtained from dose response curves (0-100 μM compound) by data analysis with GraphPad Prism 4 for Windows. […] The data are presented as mean±SEM of two independent experiments, each performed in duplicate.
as §1

solubility = format: physicochemical; conditions: compared to compound 52
TSHR = TSHR (Homo sapiens, UniProt P16473); experiment: inhibition of TSH-mediated cAMP response in HEK-EM 293 cells stably expressing TSHR; format: cell-based; parameters: expressed in transfected cells
Chain of TSHR (P16473 21-764): as the sequence (P16473 21-764) above
Description: as §1
The TSH-mediated cAMP response of TSHR was inhibited by a maximum of 70.8±5.5% at 30 μM compound 52. […] Compound 52 has no activity at FSHR.
To exclude the possibility that compound 52 might be acting independently of TSHR by building aggregates with TSH, thereby inhibiting the TSH-induced response, tests were conducted for a possible aggregation between these two ligands. Compound 52 and TSH were preincubated for up to 15 minutes before addition to HEK-EM 293 cells stably expressing TSHR. […] There was no difference in the antagonistic effect whether TSH and compound 52 were preincubated together or not (data not shown) thereby excluding the possibility that its effect was caused by aggregation with TSH.

**Q.** Which results are given for COc1cccc(-c2nc(SC)nc3sc(C(=O)NN(C)C)c(N)c23)c1 [Compound 9, 5-amino-4-(3-methoxyphenyl)-N′N′-dimethyl-2-(methylthio)thieno[2,3-d]pyrimidine-6-carbohydrazide]?
**A.** % Max. Resp. @ TSHR in μM (human TSH receptor): 4.0 ± 0.1%; % Max. Resp. @ LHCGR in μM (human LHCG receptor): 11.0 ± 1.5%

**Q.** What does the source list for COc1cccc(-c2nc(SC)nc3sc(C(=O)OC(C)(C)C)c(N)c23)c1 [Compound 5, tert-butyl-5-amino-4-(3-methoxyphenyl)-2-(methylthio)thieno[2,3-d]pyrimidine-6-carboxylate]?
**A.** % Max. Resp. @ TSHR in μM (human TSH receptor): >30.3* %; EC50 (human TSH receptor): 11900 nM; % Max. Resp. @ LHCGR in μM (human LHCG receptor): 23.8 ± 3.3%; EC50 (human LHCG receptor): 1.1 µM

**Q.** What does the source list for COc1cccc(-c2nc(SC)nc3sc(C(=O)NC(C)(C)C)c(N)c23)c1OC [Compound 16, N-tert-butyl-5-amino-4-(2,3-dimethoxyphenyl)-2-(methylthio)thieno[2,3-d]pyrimidine-6-carboxamide]?
**A.** % Max. Resp. @ TSHR in μM (human TSH receptor): 3.0 ± 0.9%; % Max. Resp. @ LHCGR in μM (human LHCG receptor): 50.1 ± 3.6%; EC50 (human LHCG receptor): 0.8 µM

**Q.** Which “% Max. Resp. @ TSHR in μM” value (human TSH receptor) does the source give for CCNC(=O)c1sc2nc(SC)nc(-c3cccc(OC)c3)c2c1N [Compound 6, 5-amino-N-(ethyl)-4-(3-methoxyphenyl)-2-(methylthio)thieno[2,3-d]pyrimidine-6-carboxamide] here?
**A.** 2.3 ± 0.4%

**Q.** What about the “% Max. Resp. @ LHCGR in μM” value (human LHCG receptor) of the same compound?
**A.** 26.9 ± 4.8%

**Q.** For COc1cccc(-c2nc(SC)nc3sc(C(=O)NCCO)c(N)c23)c1 [Compound 12, 5-amino-4-(3-methoxyphenyl)-N-(2-hydroxyethyl)-2-(methylthio)thieno[2,3-d]pyrimidine-6-carboxamide], which “% Max. Resp. @ TSHR in μM” value (human TSH receptor) is on record?
**A.** 2.9 ± 0.5%

**Q.** And the “% Max. Resp. @ LHCGR in μM” value (human LHCG receptor)?
**A.** 20.5 ± 2.7%

**Q.** With COc1cccc(-c2nc(SC)nc3sc(C(=O)N(C)C(C)(C)C)c(N)c23)c1 [Compound 7, N-tert-butyl-5-amino-4-(3-methoxyphenyl)-N-methyl-2-(methylthio)thieno[2,3-d]pyrimidine-6-carboxamide] as the compound, how does the “% Max. Resp. @ TSHR in μM” value (human TSH receptor) read?
**A.** 3.6 ± 1.9%

**Q.** What about the “% Max. Resp. @ LHCGR in μM” value (human LHCG receptor) of the same compound?
**A.** 47.8 ± 2.8%

**Q.** What about the EC50 (human LHCG receptor) of the same compound?
**A.** 0.8 µM

**Q.** What does the source list for C[S+]([O-])c1nc(-c2ccc(/C=C/CS(C)(=O)=O)cc2)c2c(N)c(C(=O)NC(C)(C)C)sc2n1 (centres unmarked) [Compound 52/2]?
**A.** solubility (solubility): improved solubility; antagonistic activity at TSHR in cAMP assay (TSHR): antagonist activity similar to compound 52; also recorded: antagonistic activity

**Q.** What does the source list for COc1cccc(-c2nc(SC)nc3sc(C(=O)NCC#N)c(N)c23)c1 [Compound 13, 5-amino-N-(cyanomethyl)-4-(3-methoxyphenyl)-2-(methylthio)thieno[2,3-d]pyrimidine-6-carboxamide]?
**A.** % Max. Resp. @ TSHR in μM (human TSH receptor): 3.6 ± 0.6%; % Max. Resp. @ LHCGR in μM (human LHCG receptor): 20.3 ± 2.1%

**Q.** Which “% Max. Resp. @ TSHR in μM” value (human TSH receptor) does the source give for CCOC(=O)c1sc2nc(SC)nc(-c3cccc(OC)c3)c2c1N [Compound 4, ethyl-5-amino-4-(3-methoxyphenyl)-2-(methylthio)thieno[2,3-d]pyrimidine-6-carboxylate] here?
**A.** 1.5 ± 0.2%

**Q.** What about the “% Max. Resp. @ LHCGR in μM” value (human LHCG receptor) of the same compound?
**A.** 4.2 ± 2.2%

**Q.** Which “% Max. Resp. @ TSHR in μM” value (human TSH receptor) does the source give for COc1cccc(-c2nc(SC)nc3sc(C(=O)NNC(=O)OC(C)(C)C)c(N)c23)c1 [Compound 11, N′-Boc-5-amino-4-(3-methoxyphenyl)-2-(methylthio)thieno[2,3-d]pyrimidine-6-carbohydrazide] here?
**A.** 1.9 ± 0.4%

**Q.** What about the “% Max. Resp. @ LHCGR in μM” value (human LHCG receptor) of the same compound?
**A.** 2.4 ± 0.5%

**Q.** Which “% Max. Resp. @ TSHR in μM” value (human TSH receptor) does the source give for CSc1nc(-c2cccc(F)c2)c2c(N)c(C(=O)NC(C)(C)C)sc2n1 [Compound 18, N-tert-butyl-5-amino-4-(3-fluorophenyl)-2-(methylthio)thieno[2,3-d]pyrimidine-6-carboxamide] here?
**A.** 8.1 ± 1.7%

**Q.** What about the EC50 (human LHCG receptor) of the same compound?
**A.** 1.2 µM

**Q.** Which “% Max. Resp. @ TSHR in μM” value (human TSH receptor) does the source give for COc1cccc(-c2nc(SC)nc3sc(C(=O)NNC(C)(C)C)c(N)c23)c1 [Compound 10, N′-tert-butyl-5-amino-4-(3-methoxyphenyl)-2-(methylthio)thieno[2,3-d]pyrimidine-6-carbohydrazide] here?
**A.** 6.4 ± 0.6%

**Q.** And the “% Max. Resp. @ LHCGR in μM” value (human LHCG receptor)?
**A.** 6.0 ± 3.1%

**Q.** Which results are given for COc1cccc(-c2nc(SC)nc3sc(C(=O)NC(C)(C)C)c(N)c23)c1F [Compound 17, N-tert-butyl-5-amino-4-(2-fluoro-3-methoxyphenyl)-2-(methylthio)thieno[2,3-d]pyrimidine-6-carboxamide]?
**A.** % Max. Resp. @ TSHR in μM (human TSH receptor): >24.0* %; EC50 (human TSH receptor): 11500 nM; % Max. Resp. @ LHCGR in μM (human LHCG receptor): 46.3 ± 6.6%; EC50 (human LHCG receptor): 1.5 µM

**Q.** For COc1cccc(-c2nc(SC)nc3sc(C(=O)NN)c(N)c23)c1 [Compound 8, 5-amino-4-(3-methoxyphenyl)-2-(methylthio)thieno[2,3-d]pyrimidine-6-carbohydrazide], which “% Max. Resp. @ TSHR in μM” value (human TSH receptor) is on record?
**A.** 6.1 ± 0.8%

**Q.** What about the “% Max. Resp. @ LHCGR in μM” value (human LHCG receptor) of the same compound?
**A.** 8.5 ± 3.6%

**Q.** With COc1cccc(-c2nc(SC)nc3sc(C(=O)NCc4ccccc4)c(N)c23)c1 [Compound 14, 5-amino-N-benzyl-4-(3-methoxyphenyl)-2-(methylthio)thieno[2,3-d]pyrimidine-6-carboxamide] as the compound, how does the “% Max. Resp. @ TSHR in μM” value (human TSH receptor) read?
**A.** 3.0 ± 1.2%

**Q.** And the “% Max. Resp. @ LHCGR in μM” value (human LHCG receptor)?
**A.** 7.8 ± 2.7%

**Q.** What does the source list for CSc1nc(-c2cccc(O)c2)c2c(N)c(C(=O)NC(C)(C)C)sc2n1 [Compound 19, N-tert-butyl-5-amino-4-(3-hydroxyphenyl)-2-(methylthio)thieno[2,3-d]pyrimidine-6-carboxamide]?
**A.** % Max. Resp. @ TSHR in μM (human TSH receptor): 11.2 ± 1.0%; % Max. Resp. @ LHCGR in μM (human LHCG receptor): 63.9 ± 14.2%; EC50 (human LHCG receptor): 1.9 µM

**Q.** With COc1cccc(-c2nc(SC)nc3sc(C(=O)NCCc4ccccc4)c(N)c23)c1 [Compound 15, 5-amino-4-(3-methoxyphenyl)-2-(methylthio)-N-phenethylthieno[2,3-d]pyrimidine-6-carboxamide] as the compound, how does the “% Max. Resp. @ TSHR in μM” value (human TSH receptor) read?
**A.** 4.3 ± 0.4%

**Q.** What about the “% Max. Resp. @ LHCGR in μM” value (human LHCG receptor) of the same compound?
**A.** 25.6 ± 5.4%

**Q.** With CSc1nc(-c2ccc(/C=C/CS(C)(=O)=O)cc2)c2c(N)c(C(=O)NC(C)(C)C)sc2n1 [Compound 52/1] as the compound, how does the “antagonistic activity at TSHR in cAMP assay” value (TSHR) read?
**A.** no antagonistic activity

**Q.** For C[S+]([O-])C/C=C/c1ccc(-c2nc([S+](C)[O-])nc3sc(C(=O)NC(C)(C)C)c(N)c23)cc1 (centres unmarked) [Compound 52/3], which solubility (solubility) is on record?
**A.** improved solubility

**Q.** What about the “antagonistic activity at TSHR in cAMP assay” value (TSHR) of the same compound?
**A.** antagonist activity similar to compound 52; also recorded: antagonistic activity
